Measurements published in ChEMBL document CHEMBL3885881, “DrugMatrix”.

Organism: Rattus norvegicus
Test: DrugMatrix - Regimen: Daily Repeat
Format: toxicity, organism-based, Sprague-Dawley
Design: regimen Daily Repeat, gender Male, age 6-8 weeks
Settings: in vivo, po, route oral GAVAGE, vehicle 100 % WATER; for ABSOLUTE BASOPHIL / ABSOLUTE EOSINOPHIL / ABSOLUTE LYMPHOCYTE / ABSOLUTE MONOCYTE / ABSOLUTE SEGMENTED NEUTROPHIL / BASOPHIL / EOSINOPHIL / ERYTHROCYTE COUNT / HEMATOCRIT / HEMOGLOBIN / LEUKOCYTE COUNT / LYMPHOCYTE / MEAN CORPUSCULAR HEMOGLOBIN / MEAN CORPUSCULAR HEMOGLOBIN CONCENTRATION / MEAN CORPUSCULAR VOLUME / MONOCYTE / NEUTROPHIL / NUCLEATED RED BLOOD CELLS / PLATELET COUNT: tissue Blood; for ALANINE AMINOTRANSFERASE / ALBUMIN / ALKALINE PHOSPHATASE / ASPARTATE AMINOTRANSFERASE / BLOOD UREA NITROGEN / CARBON DIOXIDE / CHLORIDE / CHOLESTEROL / CREATINE PHOSPHOKINASE / CREATININE / GLUCOSE / LACTATE DEHYDROGENASE / LIPASE / PHOSPHORUS / POTASSIUM / SODIUM / TOTAL BILIRUBIN / TOTAL PROTEIN / URIC ACID: tissue Plasma
[1] = 0 mg/kg, 72 h, dose level Control, time 3 day
[2] = 0 mg/kg, 120 h, dose level Control, time 5 day
[3] = 200 mg/kg, 72 h, dose level Low, time 3 day

O=C(O)c1cccnc1 [NIACIN]
ABSOLUTE BASOPHIL [1]: 0 CELLS/uL
ABSOLUTE EOSINOPHIL [1]: 0 CELLS/uL
ABSOLUTE LYMPHOCYTE [1]: 10386.33 CELLS/uL
ABSOLUTE MONOCYTE [1]: 88.5 CELLS/uL
ABSOLUTE SEGMENTED NEUTROPHIL [1]: 1008.5 CELLS/uL
BASOPHIL [1]: 0%
EOSINOPHIL [1]: 0%
ERYTHROCYTE COUNT [1]: 5.16 x10E6/uL
HEMATOCRIT [1]: 32.43%
HEMOGLOBIN [1]: 12.98 G/DL
LEUKOCYTE COUNT [1]: 11.48 x10E3/uL
LYMPHOCYTE [1]: 92.33%
MEAN CORPUSCULAR HEMOGLOBIN [1]: 25.23 pg
MEAN CORPUSCULAR HEMOGLOBIN CONCENTRATION [1]: 40.08 G/DL
MEAN CORPUSCULAR VOLUME [1]: 62.95 fL
MONOCYTE [1]: 0.67%
NEUTROPHIL [1]: 7%
NUCLEATED RED BLOOD CELLS [1]: 0 /100WBC
PLATELET COUNT [1]: 1016.67 x10E3/uL
ALANINE AMINOTRANSFERASE [1]: 62.17 u/L
ALBUMIN [1]: 3.95 G/DL
ALKALINE PHOSPHATASE [1]: 363.5 u/L
ASPARTATE AMINOTRANSFERASE [1]: 118 u/L
BLOOD UREA NITROGEN [1]: 14.5 mg/dL
CARBON DIOXIDE [1]: 22.83 mmol/L
CHLORIDE [1]: 100.67 MEQ/L
CHOLESTEROL [1]: 66 mg/dL
CREATINE PHOSPHOKINASE [1]: 1308.83 u/L
CREATININE [1]: 0.22 mg/dL
GLUCOSE [1]: 187.5 mg/dL
LACTATE DEHYDROGENASE [1]: 380.17 u/L
LIPASE [1]: 16.17 u/L
PHOSPHORUS [1]: 14.27 mg/dL
POTASSIUM [1]: 6.8 MEQ/L
SODIUM [1]: 142.53 MEQ/L
TOTAL BILIRUBIN [1]: 0.2 mg/dL
TOTAL PROTEIN [1]: 5.68 G/DL
URIC ACID [1]: 2.87 mg/dL
ABSOLUTE BASOPHIL [2]: 0 CELLS/uL
ABSOLUTE EOSINOPHIL [2]: 80 CELLS/uL
ABSOLUTE LYMPHOCYTE [2]: 13301.33 CELLS/uL
ABSOLUTE MONOCYTE [2]: 180.83 CELLS/uL
ABSOLUTE SEGMENTED NEUTROPHIL [2]: 1187.83 CELLS/uL
BASOPHIL [2]: 0%
EOSINOPHIL [2]: 0.5%
ERYTHROCYTE COUNT [2]: 5.54 x10E6/uL
HEMATOCRIT [2]: 35.65%
HEMOGLOBIN [2]: 14.22 G/DL
LEUKOCYTE COUNT [2]: 14.75 x10E3/uL
LYMPHOCYTE [2]: 90.67%
MEAN CORPUSCULAR HEMOGLOBIN [2]: 25.65 pg
MEAN CORPUSCULAR HEMOGLOBIN CONCENTRATION [2]: 39.88 G/DL
MEAN CORPUSCULAR VOLUME [2]: 64.35 fL
MONOCYTE [2]: 1%
NEUTROPHIL [2]: 7.83%
NUCLEATED RED BLOOD CELLS [2]: 0.17 /100WBC
PLATELET COUNT [2]: 1285.33 x10E3/uL
ALANINE AMINOTRANSFERASE [2]: 51.67 u/L
ALBUMIN [2]: 4.08 G/DL
ALKALINE PHOSPHATASE [2]: 391.5 u/L
ASPARTATE AMINOTRANSFERASE [2]: 99.5 u/L
BLOOD UREA NITROGEN [2]: 15.5 mg/dL
CARBON DIOXIDE [2]: 28.33 mmol/L
CHLORIDE [2]: 101.83 MEQ/L
CHOLESTEROL [2]: 67.83 mg/dL
CREATINE PHOSPHOKINASE [2]: 771.33 u/L
CREATININE [2]: 0.23 mg/dL
GLUCOSE [2]: 156.5 mg/dL
LACTATE DEHYDROGENASE [2]: 544.33 u/L
LIPASE [2]: 10.17 u/L
PHOSPHORUS [2]: 12.03 mg/dL
POTASSIUM [2]: 6.81 MEQ/L
SODIUM [2]: 144.13 MEQ/L
TOTAL BILIRUBIN [2]: 0.22 mg/dL
TOTAL PROTEIN [2]: 6 G/DL
URIC ACID [2]: 2.18 mg/dL
ABSOLUTE BASOPHIL [3]: 0 CELLS/uL
ABSOLUTE EOSINOPHIL [3]: 118.67 CELLS/uL
ABSOLUTE LYMPHOCYTE [3]: 13131.33 CELLS/uL
ABSOLUTE MONOCYTE [3]: 410.33 CELLS/uL
ABSOLUTE SEGMENTED NEUTROPHIL [3]: 1606.33 CELLS/uL
BASOPHIL [3]: 0%
EOSINOPHIL [3]: 0.67%
ERYTHROCYTE COUNT [3]: 5.09 x10E6/uL
HEMATOCRIT [3]: 32.87%
HEMOGLOBIN [3]: 13.13 G/DL
LEUKOCYTE COUNT [3]: 15.27 x10E3/uL
LYMPHOCYTE [3]: 86%
MEAN CORPUSCULAR HEMOGLOBIN [3]: 25.8 pg
MEAN CORPUSCULAR HEMOGLOBIN CONCENTRATION [3]: 39.97 G/DL
MEAN CORPUSCULAR VOLUME [3]: 64.6 fL
MONOCYTE [3]: 2.67%
NEUTROPHIL [3]: 10.67%
NUCLEATED RED BLOOD CELLS [3]: 0 /100WBC
PLATELET COUNT [3]: 1167 x10E3/uL
ALANINE AMINOTRANSFERASE [3]: 51 u/L
ALBUMIN [3]: 4 G/DL
ALKALINE PHOSPHATASE [3]: 346.33 u/L
ASPARTATE AMINOTRANSFERASE [3]: 113.33 u/L
BLOOD UREA NITROGEN [3]: 12 mg/dL
CARBON DIOXIDE [3]: 23.33 mmol/L
CHLORIDE [3]: 103.33 MEQ/L
CHOLESTEROL [3]: 74.67 mg/dL
CREATINE PHOSPHOKINASE [3]: 1459.33 u/L
CREATININE [3]: 0.2 mg/dL
GLUCOSE [3]: 170 mg/dL
LACTATE DEHYDROGENASE [3]: 168.33 u/L
LIPASE [3]: 11 u/L
PHOSPHORUS [3]: 12.67 mg/dL
POTASSIUM [3]: 5.75 MEQ/L
SODIUM [3]: 144.4 MEQ/L
TOTAL BILIRUBIN [3]: 0.2 mg/dL
TOTAL PROTEIN [3]: 5.8 G/DL
URIC ACID [3]: 1.1 mg/dL
